Test results from patent US20090269734A1, “METHOD FOR DETERMINATION OF RECOGNITION SPECIFICITY OF VIRUS FOR RECEPTOR SUGAR CHAIN” (priority 2005, published 2009).

Legend:
[1] = tested on: avian A virus: A/duck/Hong Kong/24/76 (H3N2); type: binding, avian influenza A virus
[2] = tested on: human A virus: A/Memphis/1/71/(H3N2); type: binding, human influenza A virus
human B virus: B/Lee/40 = type: binding, human influenza B virus

Row | Substance | recognition of the polymer with sialo-oligosaccharide by the avian influenza A virus (absorbency at 492 nm) [1] | recognition of the polymer with sialo-oligosaccharide by the human influenza A virus (absorbency at 492 nm) [2] | recognition of the polymer with sialo-oligosaccharide by the human influenza B virus (absorbency at 492 nm) (human B virus: B/Lee/40)
1 | Poly (Neu5Ac α2-6Gal β1-4GlcNAc β-pAP/α-PGA) | weak | strongly recognizes | strongly recognizes
2 | Poly (Neu5Ac α2-3Gal β1-4GlcNAc β-pAP/α-PGA) | strongly recognizes | weak | weak
